Source: patent US20180008542A1, “PHARMACEUTICAL COMPOSITION” (priority 2003, published 2018)

What was measured:
[1] = Laser diffraction particle size analysis (Mastersizer 2000); assay type: physicochemical; conditions: continuous flow precipitator, into isopropanol; coated samples 10% protein loading
Experimental: Laser diffraction particle size analysis was carried out on bioactive coated particles using a Mastersizer 2000. Briefly, enough PCMC was added to the sample holder of the Mastersizer 2000 containing 60 ml of 2-propanol to ensure a laser obscuration of between 10 and 20%. Measurements were then taken using a previously set up Standard Operating Procedure. d(0.1)(μm)=10% of the particles are below this particle size d(0.5)(μm)=50% of the particles are above and below this particle size d(0.9)(μm)=90% of the particles are below this particle size. Span=d(0.9)−d(0.1)/d(0.5)
Span gives a good indication of population homogeneity.

[2] = Zeta potential (Malvern Zetasizer, suspension in acetonitrile); assay type: physicochemical; conditions: for Zeta potential (sign): dilute suspension in acetonitrile; for Zeta potential (mV): microcrystals in non-aqueous medium, precipitation pH 5.59-7.02 as given per sample
Source text: The core microcrystal and protein coating that are characteristic of protein coated coated microcrystals arise from a single continuous self-assembly process. In order to assess whether electrostatic binding of the bioactive molecule to pre-formed microcrystals might be important in the mechanism of this process it was of interest to measure the surface potential of the microcrystals in a non-aqueous medium. The liquid layer surrounding a charged particle exists as two parts; an inner region (Stern layer) where the ions are strongly bound and an outer (diffuse) region where they are less firmly associated. Within the diffuse layer there is a notional boundary inside which the ions and particles form a stable entity. When a particle moves (e.g. due to gravity), ions within the boundary move too. […] The potential at this boundary (surface of hydrodynamic shear) is the zeta potential. The sign and magnitude of the zeta potential depends on the surface charge of the particle with for example a negative zeta potential indicating a particle with an overall negative charge. A Malvern Zetasizer that employs laser Doppler velocimetry was used to measure the sign and approximate magnitude of the Zeta potential of microcrystals produced by precipitation of various core materials at fixed pH. The measurements were made on pre-prepared microcrystals or protein coated microcrystals suspended as dilute suspension in acetonitrile. A polystyrene latex was used to calibrate the machine. […] If electrostatic binding is important to the mechanism of formation it would be expected that only biomolecules with an overall positive charge would be expected to form a coating on these negatively charged materials. The charge on a protein is a function of pH. It will be negative at pH values above the pI and positive at a pH below the pI.

[3] = above 80% RH
Experimental: The uptake of water by bioactive molecule coated particles produced by the present co-precipitation process and of the core material precipitated alone under a controlled humidified environment was carried out by Dynamic Vapor Sorption (DVS) using Dynamic Vapor Sorption 1000 (Surface Measurement Systems).
The Experimental set-up was as follows.
The DVS used a 2 full-cycle experimental Special Automatic Operation (SAO) protocol that included an initial drying stage at 0% Relative Humidity (RH). […] This was proceeded by an identical desorption cycle down to 0% RH. This cycle was repeated. The following criteria was used to control the DVS stage change: either the rate of change of the increase in mass i.e. dm/dt dropped to 0.002, or the maximum stage time was 2000 minutes.
Prior to introduction of the sample, the balance was tared and the instrument was allowed to equilibrate until a stable baseline was observed. The particles were then loaded and the initial weight recorded, followed by switching on the SAO. The experiment ran until the completion of the SAO.

resistance arteries [4] = assay: Ex-vivo insulin bioactivity, pressure myograph; assay type: cell-based, Wistar rats; conditions: mean of 3 (SD)
Experimental: Insulin bioactivity assays were carried out on resistance arteries ([…]) isolated from 12 week old male Wistar rats studied in heated (37° C.) and gassed (95% O2/5% CO2) physiological salt solution (PSS) to achieve a pH of 7.4. A pressure myograph which allowed luminal application of drug provided initial measures of sensitivity. In the pressure system, arteries mounted on opposing glass cannula (outer dimension 80 μm) were gradually pressurized from <5 mmHg to 40 mmHg over 15 mins and held for 15 mins more before starting the assay. Responses were measured using proprietary video analysis software (MyoView). The pressure myograph is able to detect the vasodilatory effect of insulin at very low concentrations (1×10^−10 M).

[5] = HPLC analysis of insulin after reconstitution; conditions: retained in the same aqueous solution used for co-precipitation
resistance arteries [6] = assay: Ex-vivo insulin bioactivity, wire myograph; assay type: cell-based, Wistar rats; conditions: pre-constriction with thromboxane mimetic [U44169]
Experimental: A pressure myograph which allowed luminal application of drug provided initial measures of sensitivity. In the pressure system, arteries mounted on opposing glass cannula (outer dimension 80 μm) were gradually pressurized from <5 mmHg to 40 mmHg over 15 mins and held for 15 mins more before starting the assay. Responses were measured using proprietary video analysis software (MyoView). […] The arteries were then exposed to increasing concentrations of insulin either directly into the bath (wire) or by gradual infusion directly into the lumen via a fetal microcannulae inserted to the tip of the glass mounting cannula, at a constant pressure (pressure). Following pre-constriction with thromboxane mimetic [U44169] the insulin-mediated vasorelaxation profile is typical for insulin and exerts its effect mainly via the activation of nitric oxide synthase and the subsequent release of endothelial nitric oxide.

Span [1] | d(0.5)/microns [1] | Zeta potential (sign) [2] | Zeta potential (mV) [2] | Molecule | water uptake [3] | insulin mediated relaxation to noradrenaline pre-constriction (100=100% constriction) (resistance arteries [4]; Log M −9) | insulin mediated relaxation to noradrenaline pre-constriction (100=100% constriction) (resistance arteries [4]; Log M −10) | insulin mediated relaxation to noradrenaline pre-constriction (100=100% constriction) (resistance arteries [4]; Log M −11) | time to significant changes [5] | insulin mediated vasorelaxation (resistance arteries [6])
1.88 | 36.373 microns | negative | −54.8 mV | NC(=O)CC[C@H](N)C(=O)O [L-glutamine] |  |  |  |  |  | 
1.72 | 58.370 microns | negative | −49.7 mV | NCC(=O)O [Glycine, glycine] | start to take up appreciable amounts of water |  |  |  |  | 
 |  |  |  | Commercial Insulin: USP bovine pancreas insulin control |  | 65 (23) % | 84 (7) % | 100 (0) % | less than 30 minutes | 
1.32 | 21.810 microns | negative | −19.6 mV | CC(C)C(N)C(=O)O (racemic) [D,L-valine] |  |  |  |  |  | no bioactivity
